≈ marks a conversion by molar mass, not a printed value. Where “and” joins values, the source holds several entries; their conditions need not be identical. Equal entries are not always repeated.
How the values were obtained:
[1] = Lipophilicity determination by RP-HPLC; assay type: physicochemical; conditions: RP-HPLC, logarithm of capacity factor k
Description: It is evident from the graphs in Figure 1 that the correlation coefficients of the dependences of log k/log D6.5/log D7.4 have a value of r = 0.999 (n = 32), which means that the investigated compounds behave insignificantly differently in aqueous media with different pH. Moreover, lipophilicity was calculated as log P and Clog P using two prediction programs. […] Therefore, only log P values predicted by ACD/Percepta can be used for correlations with experimental values. These matches are shown in the graphs in Figure 2, and according to the correlation coefficient r~0.940 (n = 32), it can be argued that even the predicted lipophilicity values correlate with the experimentally measured ones. However, the largest variations were observed (no difference for series 1, 2) for compounds substituted with 2-Cl, 2-CF3, 2,5-Cl, 4-F, 4-CF3, and 3,5-F, 3,5-Cl. These are mainly substituents capable of forming hydrogen and other types of non-bonding interactions both with the surrounding environment and within the molecule. Overall, series 1 (3-CF3) is less lipophilic than series 2 (4-CF3), but the differences in the experimental data are insignificant. Unsubstituted derivatives 1a/2a are the least lipophilic compounds, while derivatives 1o/2o (3,5-Cl) and 1p/2p (3,5-CF3) are the most lipophilic compounds.
Experimental determination of lipophilicity values (log k, log D6.5, and log D7.4) was performed under the same conditions and on the same device as described by Strharsky et al..

[2] = test system: Staphylococcus aureus ATCC 29213; assay: MIC, microtitration broth method; assay type: cell-based; conditions: ATCC29213, S. aureus ATCC 29213
[3] = test system: methicillin-resistant S. aureus SA 3202 (MRSA1); assay: MIC, microtitration broth method; assay type: cell-based; conditions: Staphylococcus aureus; MRSA SA 3202
[4] = test system: methicillin-resistant S. aureus SA 630 (MRSA2); assay: MIC, microtitration broth method; assay type: cell-based; conditions: Staphylococcus aureus; MRSA SA 630
[5] = test system: methicillin-resistant S. aureus 63718 (MRSA3); assay: MIC, microtitration broth method; assay type: cell-based; conditions: Staphylococcus aureus; MRSA 63718
[6] = test system: Enterococcus faecalis ATCC 29212; assay: MIC, microtitration broth method; assay type: cell-based; conditions: ATCC29212, E. faecalis reference strain
[7] = test system: vancomycin-resistant E. faecalis VRE 342B (VRE1); assay: MIC, microtitration broth method; assay type: cell-based, Enterococcus faecalis
[8] = test system: vancomycin-resistant E. faecalis VRE 368 (VRE2); assay: MIC, microtitration broth method; assay type: cell-based, Enterococcus faecalis
[9] = test system: vancomycin-resistant E. faecalis VRE 725B (VRE3); assay: MIC, microtitration broth method; assay type: cell-based, Enterococcus faecalis
[10] = test system: M. smegmatis ATCC 700084; assay: In vitro antimycobacterial evaluation (MIC); assay type: cell-based, Mycobacterium smegmatis; conditions: for MIC: Mycolicibacterium smegmatis, ATCC700084
[11] = test system: Staphylococcus aureus ATCC 29213; assay: MBC, agar aliquot subculture method; assay type: cell-based; conditions: ATCC29213, S. aureus ATCC 29213
[12] = test system: methicillin-resistant S. aureus SA 3202 (MRSA1); assay: MBC, agar aliquot subculture method; assay type: cell-based; conditions: Staphylococcus aureus; MRSA SA 3202
[13] = test system: methicillin-resistant S. aureus SA 630 (MRSA2); assay: MBC, agar aliquot subculture method; assay type: cell-based; conditions: Staphylococcus aureus; MRSA SA 630
[14] = test system: methicillin-resistant S. aureus 63718 (MRSA3); assay: MBC, agar aliquot subculture method; assay type: cell-based; conditions: Staphylococcus aureus; MRSA 63718
[15] = test system: Enterococcus faecalis ATCC 29212; assay: MBC, agar aliquot subculture method; assay type: cell-based; conditions: ATCC29212, E. faecalis reference strain
[16] = test system: vancomycin-resistant E. faecalis VRE 342B (VRE1); assay: MBC, agar aliquot subculture method; assay type: cell-based, Enterococcus faecalis
[17] = test system: vancomycin-resistant E. faecalis VRE 368 (VRE2); assay: MBC, agar aliquot subculture method; assay type: cell-based, Enterococcus faecalis
[18] = test system: vancomycin-resistant E. faecalis VRE 725B (VRE3); assay: MBC, agar aliquot subculture method; assay type: cell-based, Enterococcus faecalis
[19] = test system: human monocytic leukemia cell line THP-1; assay: In vitro cell viability (cytotoxicity screening); assay type: cell-based; conditions: 24 h, medium with 10% FBS, ± SD, n = 6
Description: The investigated anilides can be divided into three groups. […] Higher concentrations (than 10 or 30 µM) were not possible to evaluate due to precipitation of the tested compounds in water medium. Based on all these observations, it can be concluded that the high antimicrobial activity of 3,5-CF3-substituted compounds is associated with significant cytotoxic effect against eukaryotic cells. On the other hand, the other still effective compounds, especially agents 1j and 1o, have an insignificant toxic effect, which makes them interesting for further study.
Human monocytic leukemia THP-1 cells obtained from the European Collection of Cell Cultures (ECACC, Salisbury, UK) were used for in vitro antiproliferative assays. A recently described procedure was used.

[20] = test system: S. aureus ATCC 29213; assay: MTT assay, inhibition of bacterial respiration; assay type: cell-based, Staphylococcus aureus
Source text: The MTT assay can be used to assess cell growth by measuring respiration. Respiratory activity of bacterial cells (which is finally reflected in their viability) less than 70% after exposure to the MIC values for each tested compound is considered as a positive result of this assay. This low level of cell oxidative metabolism indicates inhibition of cell growth by inhibition of respiration. The lowest multiples of MIC values that achieved more than 70% inhibition of S. aureus ATCC 29213 viability (%) are shown in Table 3.
The percent inhibition of respiration of S. aureus ATCC 29213 was determined through the MTT assay. The assay was performed as described recently. The percent viability is calculated through the comparison of a measured value and that of the uninhibited control: % viability = OD570E/OD570P × 100, where OD570E is the reading from the compound-exposed cells, while OD570P is the reading from the uninhibited cells (positive control). Cytotoxic potential is determined by a percent viability of <70% [46, 47].

[21] = test system: S. aureus/MRSA; assay: Antistaphylococcal activity, summary over strains; assay type: cell-based, Staphylococcus aureus; conditions: for MIC: Staphylococcus aureus, MRSA, average over the named compounds and strains, read-out: average MIC against S. aureus/MRSA; for antistaphylococcal MICs/MBCs: range over S. aureus and MRSA isolates and over the named compounds
[22] = test system: E. faecalis/VRE; assay: Anti-enterococcal activity, summary over strains; assay type: cell-based, Enterococcus faecalis; conditions: for MIC: Enterococcus faecalis, VRE, average over the named compounds and strains, read-out: average MIC against E. faecalis/VRE; for anti-enterococcal MICs/MBCs: range over E. faecalis and VRE isolates and over the named compounds
[23] = test system: Mycobacterium marinum CAMP 5644; assay: In vitro antimycobacterial evaluation (MIC); assay type: cell-based; conditions: Mycobacterium marinum, CAMP5644, M. marinum CAMP 5644

| Structure (SMILES) | log k [1] | MIC [2] | MIC [3] | MIC [4] | MIC [5] | MIC [6] | MIC [7] | MIC [8] | MIC [9] | MBC [11] | MBC [12] | MBC [13] | MBC [14] | MBC [15] | MBC [16] | IC50 [19] | Conc.: lowest multiple of MIC with at least 70% inhibition of respiratory activity [20] | Conc.: the same concentration as multiple of MBC [20] | melting point | MIC [10] | other results |
| --- | --- | --- | --- | --- | --- | --- | --- | --- | --- | --- | --- | --- | --- | --- | --- | --- | --- | --- | --- | --- | --- |
| O=C(/C=C/c1ccc(C(F)(F)F)cc1)Nc1cccc(C(F)(F)F)c1 [2i, (2E)-N-[3-(Trifluoromethyl)phenyl]-3-[4-(trifluoromethyl)phenyl]prop-2-enamide] | 0.8867 | 1.39 µM (≈ 0.499 µg/mL) | 2.78 µM (≈ 0.999 µg/mL) | 1.39 µM (≈ 0.499 µg/mL) | 2.78 µM (≈ 0.999 µg/mL) | 11.1 µM (≈ 3.99 µg/mL) | 11.1 µM (≈ 3.99 µg/mL) | 11.1 µM (≈ 3.99 µg/mL) | 11.1 µM (≈ 3.99 µg/mL) | 1.39 µM (≈ 0.499 µg/mL) | 2.78 µM (≈ 0.999 µg/mL) | 1.39 µM (≈ 0.499 µg/mL) | 2.78 µM (≈ 0.999 µg/mL) | 11.1 µM (≈ 3.99 µg/mL) | 22.3 µM (≈ 8.01 µg/mL) | > 10 µM | 1× MIC (1× MBC) | 1× MIC (1× MBC) | 134 to 136 °C |  | MIC MS [10]: no effect; MBC [17]: 44.5 µM (≈ 16 µg/mL); MBC [18]: 11.1 µM (≈ 3.99 µg/mL); MIC [21]: ~1.4 µM (≈ 0.503 µg/mL); antistaphylococcal MICs/MBCs [21]: 0.15 to 5.57 µM and 0.146 to 5.57 µM; MIC [22]: ~15 µM (≈ 5.39 µg/mL); anti-enterococcal MICs/MBCs [22]: 2.34 to 44.5 µM |
| O=C(/C=C/c1cccc(C(F)(F)F)c1)Nc1cc(Cl)cc(Cl)c1 [1o, (2E)-N-(3,5-Dichlorophenyl)-3-[3-(trifluoromethyl)phenyl]prop-2-enamide] | 1.2028 | 0.694 µM (≈ 0.25 µg/mL) | 1.39 µM (≈ 0.501 µg/mL) | 0.694 µM (≈ 0.25 µg/mL) | 0.694 µM (≈ 0.25 µg/mL) | 11.1 µM (≈ 4 µg/mL) | 22.2 µM (≈ 8 µg/mL) | 22.2 µM (≈ 8 µg/mL) | 22.2 µM (≈ 8 µg/mL) | 0.694 µM (≈ 0.25 µg/mL) | 2.78 µM (≈ 1 µg/mL) | 0.694 µM (≈ 0.25 µg/mL) | 1.39 µM (≈ 0.501 µg/mL) | 22.2 µM (≈ 8 µg/mL) | 22.2 µM (≈ 8 µg/mL) | > 30 µM | 0.25× MIC (0.25× MBC) | 0.25× MIC (0.25× MBC) | 124 to 126 °C | 11.1 µM (≈ 4 µg/mL) | MBC [17]: 22.2 µM (≈ 8 µg/mL); MBC [18]: 22.2 µM (≈ 8 µg/mL); MIC [21]: ~1.4 µM (≈ 0.504 µg/mL); antistaphylococcal MICs/MBCs [21]: 0.15 to 5.57 µM and 0.146 to 5.57 µM; MIC [22]: ~15 µM (≈ 5.4 µg/mL); anti-enterococcal MICs/MBCs [22]: 2.34 to 44.5 µM |
| NNC(=O)c1ccncc1 [INH, isoniazid, reference compound] |  |  |  |  |  |  |  |  |  |  |  |  |  |  |  |  |  |  |  | 117 µM (≈ 16 µg/mL) | MIC [23]: 36.6 µM (≈ 5.02 µg/mL) |
| O=C(/C=C/c1cccc(C(F)(F)F)c1)Nc1ccc(Cl)cc1 [1g, (2E)-N-(4-Chlorophenyl)-3-[3-(trifluoromethyl)phenyl]prop-2-enamide] | 0.7982 | 24.6 µM (≈ 8.01 µg/mL) | 12.3 µM (≈ 4.01 µg/mL) | 6.14 µM (≈ 2 µg/mL) | 12.3 µM (≈ 4.01 µg/mL) |  |  |  |  | 49.1 µM (≈ 16 µg/mL) | 24.6 µM (≈ 8.01 µg/mL) | 6.14 µM (≈ 2 µg/mL) | 24.6 µM (≈ 8.01 µg/mL) |  |  | > 10 µM | 4 × MIC | 2 × MBC | 162 to 164 °C | 24.6 µM (≈ 8.01 µg/mL) |  |
